Reference: the CheMixHub viscosity set

Experiment: xn = mol fraction of the nth substance listed

CCCCCCCCCCCC(=O)OC + CCCCCCCCCCCC
viscosity [mPa·s], 100 kPa
Conditions | x2 = 0.0991 | x2 = 0.2004 | x2 = 0.3006 | x2 = 0.3991 | x2 = 0.5003 | x2 = 0.6 | x2 = 0.6997 | x2 = 0.8005 | x2 = 0.8995
293.15 K | 2.863 | 2.631 | 2.435 | 2.242 | 2.09 | 1.931 | 1.789 | 1.671 | 1.564
298.15 K | 2.554 | 2.356 | 2.185 | 2.009 | 1.883 | 1.749 | 1.624 | 1.514 | 1.425
303.15 K | 2.296 | 2.126 | 1.975 | 1.83 | 1.71 | 1.595 | 1.485 | 1.391 | 1.308
308.15 K | 2.081 | 1.93 | 1.797 | 1.671 | 1.563 | 1.461 | 1.363 | 1.28 | 1.205
313.15 K | 1.896 | 1.763 | 1.644 | 1.526 | 1.436 | 1.344 | 1.257 | 1.183 | 1.116
318.15 K | 1.735 | 1.616 | 1.511 | 1.402 | 1.318 | 1.243 | 1.164 | 1.098 | 1.037
323.15 K | 1.594 | 1.489 | 1.395 | 1.299 | 1.223 | 1.153 | 1.082 | 1.022 | 0.967

CCCCCCCCCCCCCCCCCCCl + CCCCCCCCCCCC
298 K, 101.3 kPa
Conditions | viscosity [mPa·s]
x2 = 0.1097 | 6.289
x2 = 0.2096 | 5.429
x2 = 0.3134 | 4.684
x2 = 0.4067 | 4
x2 = 0.5044 | 3.481
x2 = 0.6047 | 2.887
x2 = 0.6853 | 2.488
x2 = 0.805 | 2.012
x2 = 0.8971 | 1.662

CCOc1ccccc1 + CCCCCCCCCCO
viscosity [mPa·s], 101.3 kPa
Conditions | x1 = 0.0999 | x1 = 0.2011 | x1 = 0.2996 | x1 = 0.4003 | x1 = 0.5011 | x1 = 0.6025 | x1 = 0.6998 | x1 = 0.8007 | x1 = 0.9012
293.15 K | 11.33 | 8.76 | 6.789 | 5.22 | 4.017 | 3.116 | 2.486 | 2.001 | 1.637
298.15 K | 9.33 | 7.335 | 5.786 | 4.5 | 3.502 | 2.729 | 2.188 | 1.79 | 1.501
308.15 K | 6.907 | 5.541 | 4.402 | 3.45 | 2.705 | 2.149 | 1.724 | 1.397 | 1.144
318.15 K | 4.863 | 3.962 | 3.226 | 2.613 | 2.125 | 1.726 | 1.414 | 1.147 | 0.9405

CCOc1ccccc1 + CCCCCCCCCO
viscosity [mPa·s], 101.3 kPa
Conditions | x1 = 0.1012 | x1 = 0.2001 | x1 = 0.3006 | x1 = 0.4009 | x1 = 0.5013 | x1 = 0.6023 | x1 = 0.7018 | x1 = 0.8005 | x1 = 0.8997
293.15 K | 8.86 | 6.725 | 5.095 | 3.858 | 2.948 | 2.293 | 1.853 | 1.578 | 1.424
298.15 K | 7.33 | 5.611 | 4.298 | 3.299 | 2.57 | 2.039 | 1.692 | 1.488 | 1.361
308.15 K | 5.241 | 4.17 | 3.295 | 2.614 | 2.089 | 1.697 | 1.394 | 1.17 | 1.023
318.15 K | 3.906 | 3.16 | 2.525 | 2.033 | 1.654 | 1.371 | 1.152 | 0.9714 | 0.8556

CCOc1ccccc1 + CCCCCCCCO
viscosity [mPa·s], 101.3 kPa
Conditions | x1 = 0.1001 | x1 = 0.1976 | x1 = 0.2997 | x1 = 0.4014 | x1 = 0.4996 | x1 = 0.6027 | x1 = 0.7022 | x1 = 0.8015 | x1 = 0.9016
293.15 K | 6.96 | 5.353 | 4.171 | 3.317 | 2.691 | 2.194 | 1.86 | 1.63 | 1.491
298.15 K | 5.929 | 4.669 | 3.644 | 2.894 | 2.361 | 1.947 | 1.68 | 1.502 | 1.36
308.15 K | 4.308 | 3.441 | 2.698 | 2.152 | 1.742 | 1.436 | 1.234 | 1.111 | 1.042
318.15 K | 3.31 | 2.701 | 2.153 | 1.7 | 1.386 | 1.143 | 0.9913 | 0.9148 | 0.8795

CCCCCCCCn1cc[n+](C)c1.[Cl-] + CCCCCCCC[n+]1ccn(C)c1.F[B-](F)(F)F
101 kPa
Conditions | viscosity [mPa·s]
303.15 K, x1 = 0.2 | 529.1
308.15 K, x1 = 0.2 | 381.3
308.15 K, x1 = 0.4 | 756.6
313.15 K, x1 = 0.4 | 534.9
318.15 K, x1 = 0.4 | 386.7
318.15 K, x1 = 0.6 | 735.5
323.15 K, x1 = 0.6 | 523

CCOc1ccccc1 + CCCCCCCO
viscosity [mPa·s], 101.3 kPa
Conditions | x1 = 0.0989 | x1 = 0.1998 | x1 = 0.2988 | x1 = 0.4017 | x1 = 0.5011 | x1 = 0.6101 | x1 = 0.7004 | x1 = 0.8009 | x1 = 0.9031
293.15 K | 5.488 | 4.237 | 3.317 | 2.62 | 2.147 | 1.814 | 1.606 | 1.47 | 1.388
298.15 K | 4.761 | 3.758 | 2.978 | 2.379 | 1.916 | 1.583 | 1.412 | 1.295 | 1.252
308.15 K | 3.737 | 2.957 | 2.382 | 1.91 | 1.58 | 1.318 | 1.171 | 1.066 | 1.001
318.15 K | 2.785 | 2.261 | 1.846 | 1.517 | 1.28 | 1.083 | 0.9726 | 0.8947 | 0.8422

COC(=O)CC(C)=O + CCCCCCCO
viscosity [mPa·s], 101.33 kPa
Conditions | x1 = 0.1016 | x1 = 0.2071 | x1 = 0.3081 | x1 = 0.4096 | x1 = 0.5099 | x1 = 0.6072 | x1 = 0.7071 | x1 = 0.8059 | x1 = 0.9033
298.15 K | 4.066 | 3.167 | 2.651 | 2.278 | 2.012 | 1.842 | 1.663 | 1.546 | 1.512
303.15 K | 3.465 | 2.734 | 2.298 | 1.981 | 1.754 | 1.624 | 1.485 | 1.393 | 1.366
308.15 K | 2.97 | 2.357 | 1.998 | 1.733 | 1.545 | 1.452 | 1.337 | 1.264 | 1.245
